From PMC4850841 (Journal of medicinal chemistry, 2013)

The compounds below were run on GluN2C/D-containing NMDA receptors (assay: Potentiation of NMDA receptors, results stated jointly for both subtypes). Details: not given.
Assay type: cell-based, rat
With `CCOc1ccc(OCC2c3cc(OC)c(OC)cc3CCN2C(=O)c2cccc(Cl)c2)cc1` (stereo not drawn) [compound 100, (3-chlorophenyl)(1-((4-ethoxyphenoxy)methyl)-6,7-dimethoxy-3,4-dihydroisoquinolin-2(1H)-yl)methanone] the “activity on GluN2C- or GluN2D-containing receptors” value (shortened to “activity”) was “no detectable activity”.
With `CCOc1ccc(OCC2c3cc(OC)c(OC)cc3CCN2C(=O)c2cccc(Br)c2)cc1` (stereo not drawn) [compound 101, (3-bromophenyl)(1-((4-ethoxyphenoxy)methyl)-6,7-dimethoxy-3,4-dihydroisoquinolin-2(1H)-yl)methanone] the “activity” value was “no detectable activity”.
With `COc1ccc(OCC2c3ccc(OC)c(OC)c3CCN2C(=O)c2cccc(Cl)c2)cc1` (stereo not drawn) [compound 120, (3-chlorophenyl)(5,6-dimethoxy-1-((4-methoxyphenoxy)methyl)-3,4-dihydroisoquinolin-2(1H)-yl)methanone] the “activity” value was “inactive”.
For `COc1ccc(OCC2c3ccc(OC)c(OC)c3CCN2C(=O)c2cccc(Br)c2)cc1` (stereo not drawn) [compound 121, (3-bromophenyl)(5,6-dimethoxy-1-((4-methoxyphenoxy)methyl)-3,4-dihydroisoquinolin-2(1H)-yl)methanone], the “activity” value was “inactive”.
With `COc1ccc(SCC2c3cc(OC)c(OC)cc3CCN2C(=O)c2ccccc2)cc1` (stereo not drawn) [compound 127, (6,7-dimethoxy-1-(((4-methoxyphenyl)thio)methyl)-3,4-dihydroisoquinolin-2(1H)-yl)(phenyl)methanone] the “activity” value was “eliminated activity”.
For `COc1cc2c(cc1OC)C(COc1ccc([N+](=O)[O-])cc1)N(C(=O)c1ccccc1)CC2` (stereo not drawn) [compound 128, (6,7-dimethoxy-1-((4-nitrophenoxy)methyl)-3,4-dihydroisoquinolin-2(1H)-yl)(phenyl)methanone], the “activity” value was “no detectable activity”.
`COc1cc2c(cc1OC)C(COc1ccc([N+](=O)[O-])cc1)N(C(=O)c1cccc(Cl)c1)CC2` (stereo not drawn) [compound 129, (3-chlorophenyl)(6,7-dimethoxy-1-((4-nitrophenoxy)methyl)-3,4-dihydroisoquinolin-2(1H)-yl)methanone] was tested, and the “activity” value was “no detectable activity”.
With `COc1cc2c(cc1OC)C(COc1ccc([N+](=O)[O-])cc1)N(C(=O)c1cccc(Br)c1)CC2` (stereo not drawn) [compound 130, ((3-bromophenyl)(6,7-dimethoxy-1-((4-nitrophenoxy)methyl)-3,4-dihydroisoquinolin-2(1H)-yl)methanone)] the “activity” value was “no detectable activity”.
`COc1cc2c(cc1OC)C(COc1ccc(N)cc1)N(C(=O)c1ccccc1)CC2` (stereo not drawn) [compound 131, ((1-((4-aminophenoxy)methyl)-6,7-dimethoxy-3,4-dihydroisoquinolin-2(1H)-yl)(phenyl)methanone)] was tested, and the “activity” value was “no detectable activity”.

Same assay, conditions: read-out: EC50, GluN2C/GluN2D stated jointly; maximally effective concentrations of glutamate and glycine
In the case of `COc1ccc(OCC2c3ccc(OCc4ccccc4)cc3CCN2C(=O)c2cccc(Cl)c2)cc1` (stereo not drawn) [compound 82, (6-(benzyloxy)-1-((4-methoxyphenoxy)methyl)-3,4-dihydroisoquinolin-2(1H)-yl)(3-chlorophenyl)methanone], the EC50 is reported as 0.3 to 0.4 µM.
`COc1ccc(OCC2c3cc(C)c(C)cc3CCN2C(=O)c2cccc(Cl)c2)cc1` (stereo not drawn) [compound 122, (3-chlorophenyl)(1-((4-methoxyphenoxy)methyl)-6,7-dimethyl-3,4-dihydroisoquinolin-2(1H)-yl)methanone] showed an EC50 of roughly 1 µM.
In the case of `COc1ccc(OCC2c3cc(C)c(C)cc3CCN2C(=O)c2cccc(Br)c2)cc1` (stereo not drawn) [compound 123, (3-bromophenyl)(1-((4-methoxyphenoxy)methyl)-6,7-dimethyl-3,4-dihydroisoquinolin-2(1H)-yl)methanone], the EC50 is reported as roughly 1 µM.
